According to patent publication EP1460077B1, “Novel pyrazolopyrimidones and their use as PDE inhibitors” (The Jordanian Pharmaceutical Manufacturing Co. Ltd., priority 2003, dated 2004):

How the values were obtained:
rabbits = experiment: Penile erection index for rabbits in dependency on time (according to Bischof and Schneider); assay type: in vivo; parameters: penile erection index: scale not given here
Description: (§1) The purpose of the study was to compare the biological activity of the compositions of the present invention with that of sildenafil. In particular, the erection episodes and penile erection indexes of the compounds and compositions in the treatment of male rats and rabbits were determined.
(§2) Details on the determination of PEI values can be found in e.g. H.H. Ang and M.K. Sim, Effects of Eurycoma longifilia Jack on Penile Erection Indes and Homosexual Mounting in Rats, Pharmaceutical Sciences, 3 (1997), 117-19; and A. Benassi-Benelli, F. Ferrari and B. Pellegrini Quaratotti, Penile erection Induced by Apomorphine and N-n-propyl-norapomorphine in Rats, Arch. Int. Pharmacodyn 242 (1979), 241-247. The episode is a description for rat sucking their penus.
(§3) Rabbit experiments where performed according to E. Bischof and K. Schneider, "International Journal of Impotence Research", 13 (2001) 230 - 235, and rat experiments where performed according to EP 1057829 A1.
Studying the penile erection index for rabbits in dependency on time yields the results given in table 1 for sildenafil and the compound (III).

male rats = experiment: Erection episodes and Penile Erection Index (PEI) in male rats within 2 hours (according to EP 1057829 A1); assay type: in vivo; conditions: 10 rats
Description: as §1, §2, §3
Further, the effect on penile length of rats was studied and the following results are given in table 2 for a compound disclosed in the invention and in table 3 for sildenafil. The penile length is indicative of the efficacy of the administered medicament.

Question: With `CCCc1nn(C)c2c(=O)[nH]c(-c3cc(S(=O)(=O)N4CCN(C)CC4)ccc3OCC)nc12` [Sildenafil, sildenafil] as the molecule, how does the “efficacy (penile erection index for rabbits), comparison in words” value (rabbits; comparison of sildenafil, compound III and compositions) read?
Answer: greater efficacy than compounds III

Question: What about the penile erection index (rabbits; time 0 min) of the same molecule?
Answer: 0

Question: What about the penile erection index (rabbits; time 5 min) of the same molecule?
Answer: 18.318

Question: What about the penile erection index (rabbits; time 10 min) of the same molecule?
Answer: 16.694

Question: What about the penile erection index (rabbits; time 15 min) of the same molecule?
Answer: 15.22

Question: What about the penile erection index (rabbits; time 20 min) of the same molecule?
Answer: 13.108

Question: What about the penile erection index (rabbits; time 30 min) of the same molecule?
Answer: 11.218

Question: And the penile erection index (rabbits; time 40 min)?
Answer: 7.364

Question: And the penile erection index (rabbits; time 50 min)?
Answer: 2.94

Question: What about the No. of episodes (male rats; dose 0.0781 mg/kg) of the same molecule?
Answer: 3

Question: What about the PEI (male rats; dose 0.0781 mg/kg) of the same molecule?
Answer: 90

Question: What about the No. of episodes (male rats; dose 0.1562 mg/kg) of the same molecule?
Answer: 5

Question: What about the PEI (male rats; dose 0.1562 mg/kg) of the same molecule?
Answer: 150

Question: What about the No. of episodes (male rats; dose 0.3125 mg/kg) of the same molecule?
Answer: 7

Question: What about the PEI (male rats; dose 0.3125 mg/kg) of the same molecule?
Answer: 350

Question: What about the No. of episodes (male rats; dose 0.6250 mg/kg) of the same molecule?
Answer: 14

Question: What about the PEI (male rats; dose 0.6250 mg/kg) of the same molecule?
Answer: 980
